Reference: patent US5625095A, “Process for producing high purity acetic acid” (Daicel Chemical Industries, Ltd., priority 1994, dated 1997)

Tests used:
[1] = cited from earlier work
[2] = solubility of metaldehyde in methyl iodide, alcohols and their mixtures; assay type: physicochemical; settings: for recrystallization temperature: bottom products composition
Procedure: That is, distillation in the presence of alcohols has made it possible to prevent clogging.
It has been confirmed that in the composition of bottom products from the distillation column in the continuous production process for acetic acid, the recrystallization temperature is 18° C. at a methyl iodide/methanol weight ratio of 3/1, 12° C. at 5/4, 6° C. at 3/4, and -9° C. or lower at 1/2. The preferred methyl iodide/methanol weight ratio, which depends on a thermal insulation state, is 5/4 to 1/2.

Row | SMILES | miscibility with water [1] | dissolution in alcohols ([2]; alcohols such as methanol, ethanol, and propanol) | recrystallization temperature ([2]; methyl iodide/methanol weight ratio 1/2) [°C] | recrystallization temperature ([2]; methyl iodide/methanol weight ratio 3/1) [°C] | recrystallization temperature ([2]; methyl iodide/methanol weight ratio 3/4) [°C] | recrystallization temperature ([2]; methyl iodide/methanol weight ratio 5/4) [°C] | order of increasing solubilities ([2]; methyl iodide, acetaldehyde, methanol, mixed solution of methyl iodide and methanol) | solubility ([2]; particularly to methyl iodide)
1 | CC=O [acetaldehyde] | well miscible |  |  |  |  |  |  | 
2 | CC1OC(C)OC(C)OC(C)O1 (stereo not drawn) [metaldehyde] |  | dissolved | ≤ -9 | 18 | 6 | 12 | methyl iodide<<acetaldehyde=methanol<mixed solution of methyl iodide and methanol | low solubility
3 | CI [methyl iodide] | scarcely miscible |  |  |  |  |  |  | 
